Experimental data from the supplement of paper PMC10307832.

Experiments:
Assay in all cases: relative viability (nuclei count vs DMSO), 5 days (fraction); higher = more cells survive
Neratinib + Linsitinib = compound: CCOc1cc2ncc(C#N)c(Nc3ccc(OCc4ccccn4)c(Cl)c3)c2cc1NC(=O)/C=C/CN(C)C [Neratinib] + C[C@]1(O)C[C@@H](c2nc(-c3ccc4ccc(-c5ccccc5)nc4c3)c3c(N)nccn32)C1 [Linsitinib] (partner 1 µM)
Summary of the method: (§1)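 Relative viability equals treated-well nuclei counts divided by vehicle-well nuclei counts. Counts came from 4× images of lung cancer cell lines grown in 1536-well plates for 5 days after pin-tool dosing on the day after seeding. Dosing used one drug alone or a fixed anchor-drug dose plus five library-drug doses (not always all listed) in √10 steps, and values are medians of duplicate plates.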

Neratinib + Alpelisib = compound: CCOc1cc2ncc(C#N)c(Nc3ccc(OCc4ccccn4)c(Cl)c3)c2cc1NC(=O)/C=C/CN(C)C [Neratinib] + Cc1nc(NC(=O)N2CCC[C@H]2C(N)=O)sc1-c1ccnc(C(C)(C)C(F)(F)F)c1 [Alpelisib] (partner 2 µM)
Summary of the method: as §1

Neratinib + Vorinostat = compound: CCOc1cc2ncc(C#N)c(Nc3ccc(OCc4ccccn4)c(Cl)c3)c2cc1NC(=O)/C=C/CN(C)C [Neratinib] + O=C(CCCCCCC(=O)Nc1ccccc1)NO [Vorinostat] (partner 1 µM)
Summary of the method: as §1

Neratinib + Navitoclax = compound: CCOc1cc2ncc(C#N)c(Nc3ccc(OCc4ccccn4)c(Cl)c3)c2cc1NC(=O)/C=C/CN(C)C [Neratinib] + CC1(C)CCC(c2ccc(Cl)cc2)=C(CN2CCN(c3ccc(C(=O)NS(=O)(=O)c4ccc(N[C@H](CCN5CCOCC5)CSc5ccccc5)c(S(=O)(=O)C(F)(F)F)c4)cc3)CC2)C1 [Navitoclax] (partner 0.5 µM)
Summary of the method: as §1

Row | Cell Line | relative viability (Neratinib + Linsitinib; first compound 0.01 µM) | relative viability (Neratinib + Linsitinib; first compound 0.03162 µM) | relative viability (Neratinib + Linsitinib; first compound 0.1 µM) | relative viability (Neratinib + Linsitinib; first compound 1 µM) | relative viability (Neratinib + Alpelisib; first compound 0.01 µM) | relative viability (Neratinib + Alpelisib; first compound 0.03162 µM) | relative viability (Neratinib + Alpelisib; first compound 0.1 µM) | relative viability (Neratinib + Alpelisib; first compound 1 µM) | relative viability (Neratinib + Vorinostat; first compound 0.01 µM) | relative viability (Neratinib + Vorinostat; first compound 0.03162 µM) | relative viability (Neratinib + Vorinostat; first compound 0.1 µM) | relative viability (Neratinib + Vorinostat; first compound 0.3162 µM) | relative viability (Neratinib + Vorinostat; first compound 1 µM) | relative viability (Neratinib + Navitoclax; first compound 0.01 µM) | relative viability (Neratinib + Navitoclax; first compound 0.03162 µM) | relative viability (Neratinib + Navitoclax; first compound 0.1 µM) | relative viability (Neratinib + Navitoclax; first compound 1 µM) | relative viability (Neratinib + Linsitinib; first compound 0.3162 µM) | relative viability (Neratinib + Alpelisib; first compound 0.3162 µM) | relative viability (Neratinib + Navitoclax; first compound 0.3162 µM)
1 | NCI-H650 | 1 | 0.986 | 1.03 | 0.577 | 1.13 | 1.32 | 0.999 | 0.85 | 0.406 | 0.399 | 0.451 | 0.403 | 0.367 | – | – | – | – | – | – | –
2 | NCI-H1792 | 0.505 | 0.468 | 0.53 | 0.463 | – | 0.803 | 0.639 | 0.484 | – | – | – | – | – | 0.622 | 0.833 | 0.612 | 0.591 | 0.489 | 0.599 | –
3 | NCI-H661 | 0.621 | 0.536 | 0.499 | 0.197 | 0.66 | 0.959 | 0.443 | 0.236 | 0.866 | 0.729 | 0.583 | 0.657 | 0.445 | – | – | – | – | 0.299 | 0.187 | –
4 | NCI-H1563 | 1.22 | 1.24 | 0.993 | 0.998 | 0.815 | 0.984 | 0.877 | 0.875 | – | – | – | – | – | – | – | – | – | 1.1 | 0.843 | –
5 | NCI-H1299 | 0.996 | 1.07 | 0.846 | – | 1 | – | – | 1.04 | – | – | – | – | – | 1.04 | 1.06 | 0.986 | 1.11 | 0.944 | 1.04 | 1.07
6 | ChaGo-K-1 | – | – | – | – | – | – | – | – | 0.9 | 0.814 | 0.675 | 0.799 | 0.799 | 0.986 | 1 | 1.02 | 0.905 | – | – | 0.821
